US9393226B2, “Use of osthole for treating focal segmental glomerulosclerosis” (National Defense Medical Center, priority 2014, dated 2016)

What was measured:
Type in all cases: in vivo, BALB/c mice
[1] = tested on: adriamycin induced FSGS mice; experiment: Analysis of urine protein and renal function in mouse FSGS model; details: osthole 30 mg/kg daily intraperitoneal, vs pathological control group
Description: (§1) Experiments were performed on 8-week-old female BALB/c mice. The mice were separated into 3 groups at 8-weeks old. One of the groups were injected intravenously with normal saline to be used as normal controls, where the pathological control group and the osthole treated group were intravenously injected with a single dose of adriamycin (0.1 mg/10 g body weight) to induce FSGS, wherein the osthole treated group is intraperitoneally injected with osthole at a daily dose of 30 mg/kg body weight starting from 6 hours before FSGS induction by adriamycin. After intravenous injection of adriamycin, osthole was continuously given to the osthole treated group through intraperitoneal injection with a daily dose of 30 mg/kg body weight until they were sacrificed 28 days after FSGS induction. The pathological control group were given vehicle by intraperitoneal injection in the same fashion. Urine samples were collected in metabolic cages on days 3, 7, 14, and 21. Mice were sacrificed at day 7 or 28 post disease induction. Renal cortical tissues, spleen and serum were collected and stored properly for further analysis. Mice urine samples were collected by metabolic cages. Proteinuria was first tested with test paper, following the measurement of protein concentration with BCA Protein Assay Kit (PIERCE), where the urinary protein index was illustrated by 24-hour proteinuria (urinary protein concentration/urinary creatinine concentration). In addition, blood was collected through the eye socket, after separation, serum specimen was obtained, which was absorbed into Fuji Ori-Chem Slide and measured by machine (Fuji Photo Film Co., Tokyo, Japan) to read the data.

[2] = tested on: adriamycin induced FSGS mice; experiment: Pathologic evaluation of kidney sections (H&E) in mouse FSGS model; details: osthole 30 mg/kg daily intraperitoneal; 7th and 28th day; FIG. 2
Description: as §1, with “[…] Renal pathology was examined under optical microscope and renal lesions was scored. or EPHLs and sclerosis, at least 50 glomeruli in sections” for “Mice urine samples”, “examined for each mouse.” for “collected by metabolic cages. Proteinuria was first tested with test paper, following the measurement of protein concentration with BCA Protein Assay Kit (PIERCE), where the urinary protein index was illustrated by 24-hour proteinuria (urinary protein concentration/urinary creatinine concentration). In addition, blood was collected through the eye socket, after separation, serum specimen was obtained, which was absorbed into Fuji Ori-Chem Slide and measured by machine (Fuji Photo Film Co., Tokyo, Japan) to read the data.”

[3] = tested on: adriamycin induced FSGS mice; experiment: Evaluation of renal fibrosis (collagen IV IHC, Sirius red staining) in mouse FSGS model; details: osthole 30 mg/kg daily intraperitoneal
Description: as §1, with “analysis.” for “analysis. Mice urine samples were collected by metabolic cages. Proteinuria was first tested with test paper, following the measurement of protein concentration with BCA Protein Assay Kit (PIERCE), where the urinary protein index was illustrated by 24-hour proteinuria (urinary protein concentration/urinary creatinine concentration).”, “immunohistochemistry” for “blood”, “also performed. […] A quantitative image analysis software Pax-it; […], Villa Park, Ill., USA) was used to analyze” for “collected through”, “staining results.” for “eye socket, after separation, serum specimen was obtained, which was absorbed into Fuji Ori-Chem Slide and measured by machine (Fuji Photo Film Co., Tokyo, Japan) to read the data.”

ROS (superoxide anion) = experiment: Reactive oxygen species (ROS) determination in mouse FSGS model; details: osthole 30 mg/kg daily intraperitoneal, 28th day
Description: Experiments were performed on 8-week-old female BALB/c mice. The mice were separated into 3 groups at 8-weeks old. One of the groups were injected intravenously with normal saline to be used as normal controls, where the pathological control group and the osthole treated group were intravenously injected with a single dose of adriamycin (0.1 mg/10 g body weight) to induce FSGS, wherein the osthole treated group is intraperitoneally injected with osthole at a daily dose of 30 mg/kg body weight starting from 6 hours before FSGS induction by adriamycin. After intravenous injection of adriamycin, osthole was continuously given to the osthole treated group through intraperitoneal injection with a daily dose of 30 mg/kg body weight until they were sacrificed 28 days after FSGS induction. The pathological control group were given vehicle by intraperitoneal injection in the same fashion. Urine samples were collected in metabolic cages on days 3, 7, 14, and 21. […] Lucigenin was used to react with the ROS in urine, and detected with Hidex microplate luminometer (Finland), the results were represented as reactive luminescence units (RLU) per 15 min per milligram dry weight (i.e., RLU/15 min/mg dry weight). ROS in kidney tissues were detected with dihydroethidium (DHE), and quantitation was done by determining the ratio of signal positive nucleus/total nucleus in each kidney trans-section.

Nrf2 pathway = experiment: Anti-oxidative signaling pathway in kidney tissues (Nrf2 Western blot, HO-1 ELISA, GPx activity) in mouse FSGS model; details: kidney tissue, osthole 30 mg/kg daily intraperitoneal, FIG. 6
Description: as §1, with “analysis.” for “analysis. Mice urine samples were collected by metabolic cages. Proteinuria was first tested with test paper, following the measurement of protein concentration with BCA Protein Assay Kit (PIERCE), where the urinary protein index was illustrated by 24-hour proteinuria (urinary protein concentration/urinary creatinine concentration). In addition, blood was collected through the eye socket, after separation, serum specimen was obtained, which was absorbed into Fuji Ori-Chem Slide and measured by machine (Fuji Photo Film Co., Tokyo, Japan) to read the data.”
(§2) Cytoplasmic and nuclear proteins were extracted from renal tissues using a Nuclear Extract Kit (Active Motif, Tokyo, Japan) according to the manufacturer's instructions. Protein extract was separated by electrophoresis and blotted. Target proteins were detected by Western blot analysis using primary antibodies against mouse Nrf2 (Santa Cruz), COX-2 (Santa Cruz), caspase-3 (Cell Signaling Technology, MA, USA), or caspase-9 (Cell Signaling Technology, MA, USA). […] Lastly, secondary antibodies were added and their signals were detected by chemiluminescence.
(§3) Serum PEG2 and renal HO-1 levels in mice were determined by enzyme linked immunosorbent assay according to the manufacturer's (R&D, U.S.A., Active Motif) instructions.
GPx activity in renal tissues was measured using a commercial glutathione peroxidase assay kit (Cayman, Mich., USA) according to the manufacturer's instructions. […]

[4] = tested on: adriamycin induced FSGS mice; experiment: F4/80 immunostaining of monocyte/macrophage infiltration in kidney tissues in mouse FSGS model; details: osthole 30 mg/kg daily intraperitoneal; 28th day; FIG. 7
Description: as §1, with “analysis.” for “analysis. Mice urine samples were collected by metabolic cages. Proteinuria was first tested with test paper, following the measurement of protein concentration with BCA Protein Assay Kit (PIERCE), where the urinary protein index was illustrated by 24-hour proteinuria (urinary protein concentration/urinary creatinine concentration).”, “immunohistochemistry” for “blood”, “also performed. […] A quantitative image analysis software Pax-it; […], Villa Park, Ill., USA) was used to analyze” for “collected through”, “staining results.” for “eye socket, after separation, serum specimen was obtained, which was absorbed into Fuji Ori-Chem Slide and measured by machine (Fuji Photo Film Co., Tokyo, Japan) to read the data.”

NF-κB p65 = NF-κB p65 immunostaining in kidney tissues in mouse FSGS model; details: osthole 30 mg/kg daily intraperitoneal; 28th day; FIG. 8
Description: as §1, with “analysis.” for “analysis. Mice urine samples were collected by metabolic cages. Proteinuria was first tested with test paper, following the measurement of protein concentration with BCA Protein Assay Kit (PIERCE), where the urinary protein index was illustrated by 24-hour proteinuria (urinary protein concentration/urinary creatinine concentration).”, “immunohistochemistry” for “blood”, “also performed. […] A quantitative image analysis software Pax-it; […], Villa Park, Ill., USA) was used to analyze” for “collected through”, “staining results.” for “eye socket, after separation, serum specimen was obtained, which was absorbed into Fuji Ori-Chem Slide and measured by machine (Fuji Photo Film Co., Tokyo, Japan) to read the data.”

COX-2 and PGE2 = experiment: Renal COX-2 (Western blot) and serum PGE2 (ELISA) in mouse FSGS model; details: osthole 30 mg/kg daily intraperitoneal, 28th day
Description: Experiments were performed on 8-week-old female BALB/c mice. The mice were separated into 3 groups at 8-weeks old. One of the groups were injected intravenously with normal saline to be used as normal controls, where the pathological control group and the osthole treated group were intravenously injected with a single dose of adriamycin (0.1 mg/10 g body weight) to induce FSGS, wherein the osthole treated group is intraperitoneally injected with osthole at a daily dose of 30 mg/kg body weight starting from 6 hours before FSGS induction by adriamycin. […]
as §2, with “Protein extract was separated by electrophoresis and blotted.” left out
as §3

[5] = tested on: adriamycin induced FSGS mice; experiment: TUNEL measurement of apoptosis in kidney tissues in mouse FSGS model; details: osthole 30 mg/kg daily intraperitoneal; 28th day; FIG. 10
Description: Experiments were performed on 8-week-old female BALB/c mice. The mice were separated into 3 groups at 8-weeks old. One of the groups were injected intravenously with normal saline to be used as normal controls, where the pathological control group and the osthole treated group were intravenously injected with a single dose of adriamycin (0.1 mg/10 g body weight) to induce FSGS, wherein the osthole treated group is intraperitoneally injected with osthole at a daily dose of 30 mg/kg body weight starting from 6 hours before FSGS induction by adriamycin. After intravenous injection of adriamycin, osthole was continuously given to the osthole treated group through intraperitoneal injection with a daily dose of 30 mg/kg body weight until they were sacrificed 28 days after FSGS induction. The pathological control group were given vehicle by intraperitoneal injection in the same fashion. Urine samples were collected in metabolic cages on days 3, 7, 14, and 21. Mice were sacrificed at day 7 or 28 post disease induction. Renal cortical tissues, spleen and serum were collected and stored properly for further analysis. TUNEL (Terminal deoxynucleotidyl transferase dUTP nick end labeling) was used for the detection of apoptosis. Kidney sections were prepared by fixing with formalin and embedded in paraffin. […]

[6] = tested on: caspase-3, caspase-8 and caspase-9; experiment: Western blot analysis of caspase-3, caspase-8 and caspase-9 in kidney tissues in mouse FSGS model; details: kidney tissue
Description: Experiments were performed on 8-week-old female BALB/c mice. The mice were separated into 3 groups at 8-weeks old. One of the groups were injected intravenously with normal saline to be used as normal controls, where the pathological control group and the osthole treated group were intravenously injected with a single dose of adriamycin (0.1 mg/10 g body weight) to induce FSGS, wherein the osthole treated group is intraperitoneally injected with osthole at a daily dose of 30 mg/kg body weight starting from 6 hours before FSGS induction by adriamycin. After intravenous injection of adriamycin, osthole was continuously given to the osthole treated group through intraperitoneal injection with a daily dose of 30 mg/kg body weight until they were sacrificed 28 days after FSGS induction. The pathological control group were given vehicle by intraperitoneal injection in the same fashion. Urine samples were collected in metabolic cages on days 3, 7, 14, and 21. Mice were sacrificed at day 7 or 28 post disease induction. Renal cortical tissues, spleen and serum were collected and stored properly for further analysis. Cytoplasmic and nuclear proteins were extracted from renal tissues using a Nuclear Extract Kit (Active Motif, Tokyo, Japan) according to the manufacturer's instructions. Protein extract was separated by electrophoresis and blotted. Target proteins were detected by Western blot analysis using primary antibodies against mouse Nrf2 (Santa Cruz), COX-2 (Santa Cruz), caspase-3 (Cell Signaling Technology, MA, USA), or caspase-9 (Cell Signaling Technology, MA, USA). Antibodies against histone H3 (Cell Signaling, CO, USA) or β-actin (Santa Cruz) were used as internal controls for the nuclear and cytosolic target proteins, respectively. Lastly, secondary antibodies were added and their signals were detected by chemiluminescence.

[7] = osthole 30 mg/kg daily intraperitoneal, vs pathological control group, FIG. 11

Structure (SMILES): COc1ccc2ccc(=O)oc2c1CC=C(C)C [osthole]
- urine protein concentration (urine protein/urine creatinine ratio) ([1]; 7th to 28th day, FIG. 1A): almost be completely suppressed
- blood urea nitrogen (BUN) ([1]; 28th day, FIG. 1B): lower BUN and Cr concentration, similar to that of the normal control group
- serum creatinine (Cr) ([1]; 28th day, FIG. 1C): lower BUN and Cr concentration, similar to that of the normal control group
- disease progression of glomerular sclerosis (histopathology) [2]: significantly suppress the disease progression of glomerular sclerosis
- fibrosis of the renal tissue (Sirius red staining) ([3]; 28th day, FIG. 4): suppress fibrosis of the renal tissue, similar to the normal control group
- collagen IV expression in glomerular tissue (IHC) ([3]; FIG. 3): significantly suppress collagen IV expression in glomerular tissue
- superoxide anion (ROS) in serum (ROS (superoxide anion); FIG. 5A): suppressed exhibition of such phenomenon
- superoxide anion (ROS) in kidney tissue (ROS (superoxide anion); FIG. 5B): suppressed exhibition of such phenomenon
- GPx activity (Nrf2 pathway): significantly increase HO-1 expression and GPx activity
- HO-1 expression (Nrf2 pathway): significantly increase HO-1 expression and GPx activity
- Nrf2 translocation into the nucleus (Nrf2 pathway; vs pathological control group): significantly increase the Nrf2 translocation
- monocyte/macrophage infiltration (F4/80) in kidney tissues [4]: significantly reduced infiltration
- NF-κB p65 nuclear translocation in kidney tissues (NF-κB p65): can be suppressed by osthole
- COX-2 expression level (renal) (COX-2 and PGE2; FIG. 9A-B): restored to levels similar to the normal control group
- PGE2 expression level (serum) (COX-2 and PGE2; FIG. 9C): restored to levels similar to the normal control group
- apoptosis in kidney tissues (TUNEL staining) [5]: can be suppressed by administration of osthole
- expression level of caspase-8 ([6]; data not shown): did not show significant difference
- caspase-3 in activated state (p17 fragment) [6, 7]: suppressed significantly
- caspase-9 in activated state (p37 fragment) [6, 7]: suppressed significantly
